Test results reported in US20250332178A1, “METHODS OF TREATING MYCOBACTERIAL INFECTIONS USING TETRACYCLINE COMPOUNDS” (priority 2018, published 2025).
≈ marks a conversion by molar mass, not a printed value. Where two headings read alike, the source gives them in different places.

Assays:
M. immunogenum group = test: MIC (CLSI broth dilution), RGM isolates; assay type: cell-based; conditions: M. immunogenum, read-out: MIC
M. fortuitum group = test: MIC (CLSI broth dilution), RGM isolates; assay type: cell-based; conditions: Mycolicibacterium fortuitum, read-out: MIC
M. avium = test: MIC (CLSI broth dilution), slow-growing NTM isolates; assay type: cell-based; conditions: Mycobacterium avium, read-out: MIC
M. arupense = test: as above; assay type: cell-based; conditions: isolate 11, Other; read-out: MIC
M. chimaera = test: as above; assay type: cell-based; conditions: read-out: MIC
M. smegmatis group = test: MIC (CLSI broth dilution), RGM isolates; assay type: cell-based; conditions: Mycolicibacterium smegmatis, read-out: MIC
[1] = system: slow-growing NTM isolates; test: MIC (CLSI broth dilution), all slow-growing NTM isolates; assay type: cell-based, nontuberculous mycobacteria; conditions: all slow-growing NTM isolates
M. intracellulare = test: MIC (CLSI broth dilution), slow-growing NTM isolates; assay type: cell-based; conditions: Mycobacterium intracellulare, read-out: MIC
M. simiae = test: as above; assay type: cell-based; conditions: read-out: MIC
M. abscessus complex = test: MIC (CLSI broth dilution), RGM isolates; assay type: cell-based; conditions: Mycobacteroides abscessus, read-out: MIC
M. chelonae = test: MIC (CLSI broth dilution), RGM isolates; assay type: cell-based; conditions: Mycobacteroides chelonae, read-out: MIC
[2] = system: rapid-growing mycobacteria (RGM) isolates; test: MIC (CLSI broth dilution), all RGM isolates; assay type: cell-based, nontuberculous mycobacteria; conditions: all 50 RGM isolates
[3] = system: Bacille Calmette Guerin (BCG); assay type: cell-based, Mycobacterium bovis; conditions: disk: 30 μg of linezolid
M. mucogenium group = test: MIC (CLSI broth dilution), RGM isolates; assay type: cell-based; conditions: read-out: MIC

In the case of `CC(=O)NC[C@H]1CN(c2ccc(N3CCOCC3)c(F)c2)C(=O)O1` [linezolid], the MIC (M. immunogenum group; isolate 35, M. immunogenum group) is reported as 32 µg/mL (≈ 94.9 µM), the MIC (M. immunogenum group; isolate 36, M. immunogenum group) is reported as 8 µg/mL (≈ 23.7 µM) and the MIC (M. immunogenum group; isolate 37, M. immunogenum group) is reported as 32 µg/mL (≈ 94.9 µM). It also gave an MIC (M. immunogenum group; isolate 38, M. immunogenum group) of 32 µg/mL (≈ 94.9 µM), an MIC (M. fortuitum group; isolate 23, M. fortuitum group, M. fortuitum) of at most 2 µg/mL and an MIC (M. fortuitum group; isolate 24, M. fortuitum group, M. fortuitum) of 4 µg/mL (≈ 11.9 µM). The MIC (M. fortuitum group; isolate 25, M. fortuitum group, M. fortuitum) was 4 µg/mL (≈ 11.9 µM), the MIC (M. fortuitum group; isolate 26, M. fortuitum group, M. porcinum) was at most 2 µg/mL and the MIC (M. fortuitum group; isolate 27, M. fortuitum group, M. porcinum) was 4 µg/mL (≈ 11.9 µM). For the same compound, the MIC (M. fortuitum group; isolate 28, M. fortuitum group, M. porcinum/M. boenickei) was at most 2 µg/mL, the MIC (M. fortuitum group; isolate 29, M. fortuitum group, M. porcinum/M. boenickei) was 4 µg/mL (≈ 11.9 µM) and the MIC (M. fortuitum group; isolate 30, M. fortuitum group, M. porcinum/M. boenickei) was at most 2 µg/mL. The MIC (M. fortuitum group; isolate 31, M. fortuitum group, M. senegalense) was at most 2 µg/mL, the MIC (M. fortuitum group; isolate 32, M. fortuitum group, M. senegalense) was at most 2 µg/mL and the MIC (M. fortuitum group; isolate 33, M. fortuitum group, M. senegalense) was at most 2 µg/mL. The MIC (M. fortuitum group; isolate 34, M. fortuitum group, M. senegalense) was at most 2 µg/mL, the MIC (M. avium; isolate 1, MAC) was 32 µg/mL (≈ 94.9 µM) and the MIC (M. avium; isolate 2, MAC) was 32 µg/mL (≈ 94.9 µM). For the same compound, the MIC (M. avium; isolate 3, MAC) was over 32 µg/mL, the MIC (M. arupense) was 32 µg/mL (≈ 94.9 µM) and the MIC (M. chimaera; isolate 4, MAC) was 16 µg/mL (≈ 47.4 µM). The MIC (M. chimaera; isolate 5, MAC) was 32 µg/mL (≈ 94.9 µM), the MIC (M. smegmatis group; isolate 49, M. smegmatis group, M. goodii) was at most 2 µg/mL and the MIC (M. smegmatis group; isolate 50, M. smegmatis group, M. wolinskyi) was 4 µg/mL (≈ 11.9 µM). The MIC50 ([1]; read-out: MIC50) was 32 µg/mL (≈ 94.9 µM), the MIC90 ([1]; read-out: MIC90) was over 32 µg/mL and the MIC (M. intracellulare; isolate 6, MAC) was 32 µg/mL (≈ 94.9 µM). For the same compound, the MIC (M. intracellulare; isolate 7, MAC) was 16 µg/mL (≈ 47.4 µM), the MIC (M. intracellulare; isolate 8, MAC) was 32 µg/mL (≈ 94.9 µM) and the MIC (M. intracellulare; isolate 9, MAC) was 32 µg/mL (≈ 94.9 µM). It also gave an MIC (M. intracellulare; isolate 10, MAC) of over 32 µg/mL, an MIC (M. simiae; isolate 13, Other) of over 32 µg/mL and an MIC (M. simiae; isolate 14, Other) of 32 µg/mL (≈ 94.9 µM). It also gave an MIC (M. simiae; isolate 15, Other) of over 32 µg/mL, an MIC (M. abscessus complex; isolate 1, M. abscessus complex, erm gene type MAB30) of 16 µg/mL (≈ 47.4 µM) and an MIC (M. abscessus complex; isolate 2, M. abscessus complex, erm gene type MAB30) of 16 µg/mL (≈ 47.4 µM). The MIC (M. abscessus complex; isolate 3, M. abscessus complex, erm gene type MAB30) was 32 µg/mL (≈ 94.9 µM), the MIC (M. abscessus complex; isolate 4, M. abscessus complex, erm gene type massiliense) was 16 µg/mL (≈ 47.4 µM) and the MIC (M. abscessus complex; isolate 5, M. abscessus complex, erm gene type massiliense/subsp. abs hybrid) was 4 µg/mL (≈ 11.9 µM). For the same compound, the MIC (M. abscessus complex; isolate 6, M. abscessus complex, erm gene type Type 1 abscessus) was 32 µg/mL (≈ 94.9 µM), the MIC (M. abscessus complex; isolate 7, M. abscessus complex, erm gene type Type 1 abscessus) was 16 µg/mL (≈ 47.4 µM) and the MIC (M. abscessus complex; isolate 8, M. abscessus complex, erm gene type Type 1 abscessus) was 16 µg/mL (≈ 47.4 µM). The MIC (M. abscessus complex; isolate 9, M. abscessus complex, erm gene type Type 1 abscessus) was 32 µg/mL (≈ 94.9 µM), the MIC (M. abscessus complex; isolate 10, M. abscessus complex, erm gene type Type 1 abscessus) was 16 µg/mL (≈ 47.4 µM) and the MIC (M. abscessus complex; isolate 11, M. abscessus complex, erm gene type Type 6 abscessus) was 8 µg/mL (≈ 23.7 µM). The MIC (M. abscessus complex; isolate 12, M. abscessus complex, erm gene type Type 6 abscessus) was 8 µg/mL (≈ 23.7 µM), the MIC (M. abscessus complex; isolate 13, M. abscessus complex, erm gene type Type 6 abscessus) was 16 µg/mL (≈ 47.4 µM) and the MIC (M. abscessus complex; isolate 14, M. abscessus complex, erm gene type Type 6 abscessus) was at most 2 µg/mL. It also gave an MIC (M. abscessus complex; isolate 15, M. abscessus complex, erm gene type Type 7 abscessus) of 16 µg/mL (≈ 47.4 µM), an MIC (M. abscessus complex; isolate 16, M. abscessus complex, erm gene type Type 7 abscessus) of at most 2 µg/mL and an MIC (M. abscessus complex; isolate 17, M. abscessus complex, erm gene type Type 8 abscessus) of 16 µg/mL (≈ 47.4 µM). It also gave an MIC (M. chelonae; isolate 18, M. chelonae) of 16 µg/mL (≈ 47.4 µM), an MIC (M. chelonae; isolate 19, M. chelonae) of 8 µg/mL (≈ 23.7 µM) and an MIC (M. chelonae; isolate 20, M. chelonae) of 4 µg/mL (≈ 11.9 µM). It also gave an MIC (M. chelonae; isolate 21, M. chelonae) of 16 µg/mL (≈ 47.4 µM), an MIC (M. chelonae; isolate 22, M. chelonae) of 16 µg/mL (≈ 47.4 µM) and an MIC50 ([2]; read-out: MIC50) of 4 µg/mL (≈ 11.9 µM). For the same compound, the MIC90 ([2]; read-out: MIC90) was 32 µg/mL (≈ 94.9 µM), the “Results/Observations (growth)” value [3] was “No growth on plate” and the MIC (M. mucogenium group; isolate 39, M. mucogenicum group, M. mucogenicum) was at most 2 µg/mL. For the same compound, the MIC (M. mucogenium group; isolate 40, M. mucogenicum group, M. mucogenicum) was at most 2 µg/mL, the MIC (M. mucogenium group; isolate 41, M. mucogenicum group, M. mucogenicum) was at most 2 µg/mL and the MIC (M. mucogenium group; isolate 42, M. mucogenicum group, M. mucogenicum) was at most 2 µg/mL. It also gave an MIC (M. mucogenium group; isolate 43, M. mucogenicum group, M. phocaicum) of at most 2 µg/mL, an MIC (M. mucogenium group; isolate 44, M. mucogenicum group, M. phocaicum) of at most 2 µg/mL and an MIC (M. mucogenium group; isolate 45, M. mucogenicum group, M. phocaicum) of at most 2 µg/mL. It also gave an MIC (M. mucogenium group; isolate 46, M. mucogenicum group, M. phocaicum) of at most 2 µg/mL, an MIC (M. mucogenium group; isolate 47, M. mucogenicum group, M. phocaicum) of 4 µg/mL (≈ 11.9 µM) and an MIC (M. mucogenium group; isolate 48, M. mucogenicum group, M. phocaicum) of at most 2 µg/mL.
